Data published in patent publication US9708315B2, “1,2,4-triazolo[4,3-a]pyridine compounds and their use as positive allosteric modulators of MGLUR2 receptors” (Janssen Pharmaceutica NV, priority 2013, dated 2017).

System: Adult male CF No 1 albino mice
Experiment: Minimal motor impairment (rotarod) in mice
Format: in vivo
Experimental: Test compounds were administered using an optimal fluid volume to body fluid ratio. Test compounds were administered to mice in a volume of 0.01 ml/g of body weight (White, H. S., et al., General principles: Experimental selection, quantification, and evaluation of antiepileptic drugs, in Antiepileptic Drugs, Fourth Edition, R. H. Levy, R. H. Mattson, and B. S. Meldrum, Editors. 1995, Raven Press, Ltd.: New York. p. 99-110). The test compound number 6 was administered orally (p.o.). For each of the tests performed on the test compound, a 40% Hydroxypropyl-β-cyclodextrin (Hp-β-CD) stock solution was first prepared and utilized for formulating the test compound number 6 at the desired concentrations for testing via the oral (p.o.) route. Final compound concentrations were administered as suspensions in 20% Hp-β-CD. A 20% Hp-β-CD solution was used for the vehicle groups.
Adult male CF No 1 albino mice (26-35 g) were obtained from Charles River, Portage, Mich. The animals were maintained on an adequate diet (Prolab RMH 3000) and allowed free access to food and water, except during the short time they were removed from their cage for testing. Animals newly received in the laboratory were allowed sufficient time to correct for possible food and water restriction incurred during transit before being employed in testing. All mice were housed in plastic cages in specially constructed rooms with controlled humidity, exchange of air and controlled lighting (12 hours on-12 hours off). The animals were housed, fed, and handled in a manner consistent with the recommendations in the National Council Publication, “Guide for the Care and Use of Laboratory animals.” Experimental Design General Methods Minimal Motor Impairment (MMI):
Acute MMI was assessed by a combination of direct observations of the animal for overt symptoms of the animal's neurological or muscular function. In mice, the rotarod procedure was used to disclose minimal muscular or neurological impairment. When a mouse is placed on a rod that rotates at a speed of 6 rpm, the animal can maintain its equilibrium for long periods of time. The animal was considered toxic if it fell off this rotating rod three times during a 1 min period.

C[C@H](Oc1ccc(F)cc1F)c1ccn2c(CC3CC3)nnc2c1C(F)(F)F [Compound 6, 3-(Cyclopropylmethyl)-7-[(1S)-1-(2,4-difluorophenoxy)ethyl]-8-(trifluoromethyl)[1,2,4]triazolo[4,3-a]pyridine] was tested, and the “# rotarod motor impairment/# tested” value (10 mg/kg p.o., 0.25 h) was 0/4, the “# rotarod motor impairment/# tested” value (10 mg/kg p.o., 0.5 h) was 0/4 and the “# rotarod motor impairment/# tested” value (10 mg/kg p.o., 1 h) was 0/4. For the same compound, the “# rotarod motor impairment/# tested” value (10 mg/kg p.o., 2 h) was 0/4, the “# rotarod motor impairment/# tested” value (10 mg/kg p.o., 4 h) was 0/4 and the “# rotarod motor impairment/# tested” value (20 mg/kg p.o., 0.25 h) was 0/4. The “# rotarod motor impairment/# tested” value (20 mg/kg p.o., 0.5 h) was 0/4, the “# rotarod motor impairment/# tested” value (20 mg/kg p.o., 1 h) was 0/4 and the “# rotarod motor impairment/# tested” value (20 mg/kg p.o., 2 h) was 0/4. For the same compound, the “# rotarod motor impairment/# tested” value (20 mg/kg p.o., 4 h) was 0/4, the “# rotarod motor impairment/# tested” value (dose-response, 6 Hz 32 mA group, 2.5 mg/kg p.o., 0.5 h) was 0/8 and the “# rotarod motor impairment/# tested” value (dose-response, 6 Hz 32 mA group, 5 mg/kg p.o., 0.5 h) was 0/8. For the same compound, the “# rotarod motor impairment/# tested” value (dose-response, 6 Hz 32 mA group, 10 mg/kg p.o., 0.5 h) was 0/8, the “# rotarod motor impairment/# tested” value (dose-response, 6 Hz 32 mA group, 20 mg/kg p.o., 0.5 h) was 0/8 and the “# rotarod motor impairment/# tested” value (dose-response, 6 Hz 44 mA group, 10 mg/kg p.o., 0.5 h) was 0/8. For the same compound, the “# rotarod motor impairment/# tested” value (dose-response, 6 Hz 44 mA group, 15 mg/kg p.o., 0.5 h) was 0/8, the “# rotarod motor impairment/# tested” value (dose-response, 6 Hz 44 mA group, 20 mg/kg p.o., 0.5 h) was 0/8 and the “# rotarod motor impairment/# tested” value (dose-response, 6 Hz 44 mA group, 40 mg/kg p.o., 0.5 h) was 0/8.
